Assay results reported in patent US20220204497A1, “NOVEL COMPOUND HAVING ANTICANCER ACTIVITY, AND METHOD FOR PRODUCING SAME” (MEDICINAL BIOCONVERGENCE RESEARCH CENTER, priority 2019, published 2022).

What follows are compounds tested on A549 cells (assay: Cell viability by MTT method in A549 cells). Conditions: 72 hours treatment.
Format: cell-based
Parameters: concentration or dose not given beside the values

For `Cc1ccc(S(=O)(=O)N[C@@H](CC(C)C)C(=O)N2CCOCC2)cc1` [Compound 1, (S)-4-methyl-N-(4-methyl-1-morpholino-1-oxopentan-2-yl)benzenesulfonamide], which “Cell Viability (% inhibition) (A549)” value is on record?
The value was 17.79%.

Which “Cell Viability (% inhibition) (A549)” value does the source give for `Cc1ccc(S(=O)(=O)N[C@H](CC(C)C)C(=O)N2CCOCC2)cc1` [Compound 2, (R)-4-methyl-N-(4-methyl-1-morpholino-1-oxopentan-2-yl)benzenesulfonamide] here?
Its value is 29.46%.

Which “Cell Viability (% inhibition) (A549)” value does the source give for `Cc1ccc(S(=O)(=O)N[C@@H](CC(C)C)C(=O)Nc2ccc(N3CCCCC3)cc2)cc1` [Compound 7, (S)-4-methyl-2-(4-methylphenylsulfonamido)-N-(4-(piperidin-1-yl)phenyl)pentanamide] here?
The value was 23.48%.

For `Cc1ccc(S(=O)(=O)N[C@@H](CC(C)C)C(=O)Nc2ccc(N3CCC(C)CC3)cc2)cc1` [Compound 8, (S)-4-methyl-2-(4-methylphenylsulfonamido)-N-(4-(4-methylpiperidin-1-yl)phenyl) pentanamide], which “Cell Viability (% inhibition) (A549)” value is on record?
Its value is 24.89%.

Which “Cell Viability (% inhibition) (A549)” value does the source give for `Cc1ccc(S(=O)(=O)N[C@@H](CC(C)C)C(=O)Nc2ccc(N3CCOCC3)cc2)cc1` [Compound 11, (S)-4-methyl-2-(4-methylphenylsulfonamido)-N-(4-morpholinophenyl)pentanamide] here?
The value was 23.76%.

`Cc1ccc(S(=O)(=O)N[C@@H](CC(C)C)C(=O)Nc2ccc(N3CCS(=O)(=O)CC3)cc2)cc1` [Compound 15, (S)—N-(4-(1,1-dioxidothiomorpholino)phenyl)-4-methyl-2-(4-methylphenylsulfonamido)pentanamide] was tested. Which “Cell Viability (% inhibition) (A549)” value did it give?
The value was 4.86 ± 8.75%.

`Cc1ccc(S(=O)(=O)N[C@@H](CC(C)C)C(=O)Nc2ccc(N3CCCC3)cc2)cc1` [Compound 17, (S)-4-methyl-2-(4-methylphenylsulfonamido)-N-(4-(pyrrolidin-1-yl)phenyl)pentanamide] was tested. Which “Cell Viability (% inhibition) (A549)” value did it give?
Its value is 20.11%.

`CC(C)C[C@H](NS(=O)(=O)c1ccc(F)cc1)C(=O)Nc1ccc(N2CCOCC2)cc1` [Compound 21, (S)-2-(4-fluorophenylsulfonamido)-4-methyl-N-(4-morpholinophenyl)pentanamide] was tested. Which “Cell Viability (% inhibition) (A549)” value did it give?
The value was 33.04%.

With `CC(C)C[C@H](NS(=O)(=O)c1ccc(Br)cc1)C(=O)Nc1ccc(N2CCOCC2)cc1` [Compound 22, (S)-2-(4-bromophenylsulfonamido)-4-methyl-N-(4-morpholinophenyl)pentanamide] as the compound, how does the “Cell Viability (% inhibition) (A549)” value read?
The value was 39.56 ± 5.42%.

For `CC(C)C[C@H](NS(=O)(=O)c1ccccc1)C(=O)Nc1ccc(N2CCOCC2)cc1` [Compound 27, (S)-4-methyl-N-(4-morpholinophenyl)-2-(phenylsulfonamido)pentanamide], which “Cell Viability (% inhibition) (A549)” value is on record?
The value was 13.51 ± 9.40%.

`COc1ccc(S(=O)(=O)N[C@@H](CC(C)C)C(=O)Nc2ccc(N3CCOCC3)cc2)cc1` [Compound 29, (S)-2-(4-methoxyphenylsulfonamido)-4-methyl-N-(4-morpholinophenyl)pentanamide] was tested. Which “Cell Viability (% inhibition) (A549)” value did it give?
The value was 12.70 ± 4.95%.

How did the “Cell Viability (% inhibition) (A549)” value turn out when `CC(C)C[C@H](NS(=O)(=O)c1ccc([N+](=O)[O-])cc1)C(=O)Nc1ccc(N2CCOCC2)cc1` [Compound 31, (S)-4-methyl-N-(4-morpholinophenyl)-2-(4-nitrophenylsulfonamido)pentanamide] was run?
Its value is 33.24 ± 4.95%.

Which “Cell Viability (% inhibition) (A549)” value does the source give for `CC(C)C[C@H](NS(=O)(=O)c1ccc(-c2ccccc2)cc1)C(=O)Nc1ccc(N2CCOCC2)cc1` [Compound 33, (S)-2-(biphenyl-4-ylsulfonamido)-4-methyl-N-(4-morpholinophenyl)pentanamide] here?
The value was 26.48 ± 3.66%.

How did the “Cell Viability (% inhibition) (A549)” value turn out when `Cc1ccc(S(=O)(=O)N[C@@H](C)C(=O)Nc2ccc(N3CCOCC3)cc2)cc1` [Compound 44, (S)-2-(4-methylphenylsulfonamido)-N-(4-morpholinophenyl)propanamide] was run?
Its value is 14.05 ± 4.05%.

Which “Cell Viability (% inhibition) (A549)” value does the source give for `CSCC[C@H](NS(=O)(=O)c1ccc(C)cc1)C(=O)Nc1ccc(N2CCOCC2)cc1` [Compound 45, (S)-2-(4-methylphenylsulfonamido)-4-(methylthio)-N-(4-morpholinophenyl)butanamide] here?
Its value is 12.97 ± 1.24%.
